Test results published in PMC3525752 (Bioorganic & medicinal chemistry, 2012).

How the values were obtained:
Mtb H37Rv = assay: Minimum inhibitory concentration; settings: for fold drop/change in potency (MIC) relative to parent compound 1: versus lead 1
IκB kinase β = settings: cited from earlier work
Mtb = settings: in Mtb; cited from earlier work
[1] = test system: murine macrophage cell line J774.1; assay: Cytotoxicity by Alamar Blue, 3 days; assay type: cell-based; settings: J774.1 cells, two-fold dilutions starting at 60 µM

Row | Compound | fold drop/change in potency (MIC) relative to parent compound 1 (Mtb H37Rv) | also measured
1 | O=C(Nc1cccc(F)c1)c1cc(Cl)ccc1O [Compound 34, 5-Chloro-N-(3-fluorophenyl)-2-hydroxybenzamide] | 2–4 fold | 
2 | O=C(Nc1cc(C(F)(F)F)cc(C(F)(F)F)c1)c1cc(F)ccc1O [Compound 7, N-(3,5-Bis(trifluoromethyl)phenyl)-5-fluoro-2-hydroxy-benzamide] | 2 fold | 
3 | O=C(Nc1ccccc1C(F)(F)F)c1cc(Cl)ccc1O [Compound 28, 5-Chloro-2-hydroxy-N-(2-trifluoromethyl-phenyl)-benzamide] |  | fold loss in activity on moving single CF3 from meta to ortho (Mtb H37Rv; versus meta-CF3 compound 27): 4–8 fold
4 | O=C(Nc1cc(C(F)(F)F)cc(C(F)(F)F)c1)c1cc(I)ccc1O [Compound 9, N-(3,5-Bis(trifluoromethyl)phenyl)-2-hydroxy-5-iodobenzamide] | 2 fold | 
5 | O=C(Nc1cc(C(F)(F)F)cc(C(F)(F)F)c1)c1cc(Cl)ccc1O [Compound 1, N-(3,5-bis(trifluoromethyl)phenyl)-5-chloro-2-hydroxybenzamide] |  | inhibition of IκB kinase β (IκB kinase β): potent inhibitor
6 | O=C(Nc1ccc([N+](=O)[O-])cc1Cl)c1cc(Cl)ccc1O [niclosamide] |  | effect on membrane potential and pH homeostasis (Mtb): disruption of membrane potential and pH homeostasis
7 | O=C(Nc1cc(C(F)(F)F)cc(C(F)(F)F)c1)c1cc(Br)ccc1O [Compound 8, N-(3,5-Bis(trifluoromethyl)phenyl)-5-bromo-2-hydroxybenzamide] | 2 fold | 
8 | O=C(Nc1ccccc1)c1cc(Cl)ccc1O [Compound 26, 5-Chloro-2-hydroxy-N-phenylbenzamide] | 4–8 fold | 
9 | N-(3-Bromo-5-(trifluoromethyl)phenyl)-5-chloro-2-hydroxy-benzamide [Compound 74] |  | IC50 [1]: 5.8 µM
10 | O=C(Nc1cccc(Br)c1)c1cc(Cl)ccc1O [Compound 35, N-(3-Bromophenyl)-5-chloro-2-hydroxybenzamide] | 2–4 fold | 
11 | O=C(Nc1cc(C(F)(F)F)cc(C(F)(F)F)c1)c1ccccc1O [Compound 2, N-(3,5-Bis(trifluoromethyl)phenyl)-2-hydroxybenzamide] | 2–4 fold | 
